According to US12344597B2, “Alkoxy-substituted pyridinyl derivatives as LPA1 receptor antagonists and their use in the treatment of fibrosis” (IDORSIA PHARMACEUTICALS LTD, priority 2018, dated 2025):
pIC50: −log10 of the molar value.

Molecular target: human LPA1 receptor (Homo sapiens (Human), UniProt Q92633)
Experiment: Beta-arrestin recruitment assay to determine IC50 values for human LPAR1
Assay type: cell-based
Details: antagonist mode, Tango EDG2-bla U2OS cells, LPA 18:1 500 nM final
How it was run: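 Tango EDG2-bla U2OS cells: LPA-driven beta-arrestin/TEV protease recruitment releases Gal4-VP16, inducing beta-lactamase reporter read with live-cell substrate. Cells seeded 20 h at 37 °C beforehand. IC50 is antagonist concentration inhibiting 50% of maximal response.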

human LPA1 receptor, sequence (Q92633 whole entry): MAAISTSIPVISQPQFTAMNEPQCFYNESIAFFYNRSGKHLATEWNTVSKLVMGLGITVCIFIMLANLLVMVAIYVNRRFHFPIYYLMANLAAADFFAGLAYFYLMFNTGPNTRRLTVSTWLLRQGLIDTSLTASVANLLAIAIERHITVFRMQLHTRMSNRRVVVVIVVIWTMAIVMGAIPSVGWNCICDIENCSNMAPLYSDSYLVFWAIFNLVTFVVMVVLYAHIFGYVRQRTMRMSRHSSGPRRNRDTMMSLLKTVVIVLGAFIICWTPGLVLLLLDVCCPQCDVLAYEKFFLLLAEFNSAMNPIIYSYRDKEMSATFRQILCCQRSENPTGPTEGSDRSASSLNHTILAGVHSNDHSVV

| pIC50 | Molecule |
| --- | --- |
| 6.51 | COC(=O)c1ccc(CN2CC(C(=O)Nc3ccc(C)nc3OC(F)F)(c3ccccc3C(C)C)C2)[nH]1 [Ex 11-43, methyl 5-((3-((2-(difluoromethoxy)-6-methylpyridin-3-yl)carbamoyl)-3-(2-isopropylphenyl)azetidin-1-yl)methyl)-1H-pyrrole-2-carboxylate] |
| 7.70 | Cc1ccc(NC(=O)C2(c3ccccc3C(C)C)CN(C(=O)CCOCC(=O)OCc3ccccc3)C2)c(OC(F)F)n1 [Ex 12-109, benzyl 2-(3-(3-((2-(difluoromethoxy)-6-methylpyridin-3-yl)carbamoyl)-3-(2-isopropylphenyl)azetidin-1-yl)-3-oxopropoxy)acetate] |
| 7.39 | Cc1ccc(NC(=O)C2(c3ccccc3C(C)C)CN(C(=O)NCCC(=O)O)C2)c(OC(F)F)n1 [Ex 17-5, 3-(3-((2-(difluoromethoxy)-6-methylpyridin-3-yl)carbamoyl)-3-(2-isopropylphenyl)azetidine-1-carboxamido)propanoic acid] |
| 7.19 | COc1nc(C)ccc1NC(=O)C1(c2ccccc2C(C)C)CN(C(=O)CCC(=O)O)C1 [Ex 12-62, 4-(3-(2-isopropylphenyl)-3-((2-methoxy-6-methylpyridin-3-yl)carbamoyl)azetidin-1-yl)-4-oxobutanoic acid] |
| 6.91 | COc1cc(Cl)cnc1NC(=O)C1(c2ccccc2C(C)C)CN(C(=O)CC(C)(C)C(=O)O)C1 [Ex 79-4, 4-(3-((5-chloro-3-methoxypyridin-2-yl)carbamoyl)-3-(2-isopropylphenyl)azetidin-1-yl)-2,2-dimethyl-4-oxobutanoic acid] |
| 7.36 | (R)-2-amino-5-(3-((2-(difluoromethoxy)-6-methylpyridin-3-yl)carbamoyl)-3-(2-isopropylphenyl)azetidin-1-yl)-5-oxopentanoic acid [Ex 49] |
| 8.00 | Cc1ccc(NC(=O)C2(c3ccccc3C(C)C)CN(C(=O)CNS(N)(=O)=O)C2)c(OC(F)F)n1 [Ex 12-128, N-(2-(difluoromethoxy)-6-methylpyridin-3-yl)-3-(2-isopropylphenyl)-1-(sulfamoylglycyl)azetidine-3-carboxamide] |
| 8.00 | Cc1ccc(NC(=O)C2(c3ccccc3C(C)C)CN(C(=O)CN[C@H](C)CO)C2)c(OC(F)F)n1 [Ex 12-58, (R)-N-(2-(difluoromethoxy)-6-methylpyridin-3-yl)-1-((R)-(1-hydroxypropan-2-yl)glycyl)-3-(2-isopropylphenyl)azetidine-3-carboxamide] |
| 8.30 | Cc1ccc(NC(=O)C2(c3c(F)cccc3C(C)C)CN(C(=O)CC(C)(C)C(=O)O)C2)c(OC(F)F)n1 [Ex 39-4, 4-(3-((2-(difluoromethoxy)-6-methylpyridin-3-yl)carbamoyl)-3-(2-fluoro-6-isopropylphenyl)azetidin-1-yl)-2,2-dimethyl-4-oxobutanoic acid] |
| 8.10 | Cc1ccc(NC(=O)C2(c3c(F)cccc3C(C)C)CNC2)c(OC(F)F)n1 [Ex 36, N-(2-(difluoromethoxy)-6-methylpyridin-3-yl)-3-(2-fluoro-6-isopropylphenyl)azetidine-3-carboxamide] |
| 8.00 | Cc1ccc(NC(=O)C2(c3ccccc3C(C)C)CN(C(=O)CN[C@@H](C)CO)C2)c(OC(F)F)n1 [Ex 12-59, (S)-N-(2-(difluoromethoxy)-6-methylpyridin-3-yl)-1-((R)-(1-hydroxypropan-2-yl)glycyl)-3-(2-isopropylphenyl)azetidine-3-carboxamide] |
| 7.32 | Cc1cc(Cl)nc(N2CC(C(=O)Nc3ccc(C)nc3OC(F)F)(c3ccccc3C(C)C)C2)n1 [Ex 18-26, 1-(4-chloro-6-methylpyrimidin-2-yl)-N-(2-(difluoromethoxy)-6-methylpyridin-3-yl)-3-(2-isopropylphenyl)azetidine-3-carboxamide] |
| 6.06 | COc1cc(Cl)cnc1NC(=O)C1(c2ccccc2C(C)C)CNC1 [Ex 70, N-(5-chloro-3-methoxypyridin-2-yl)-3-(2-isopropylphenyl)azetidine-3-carboxamide] |
| 7.82 | Cc1ccc(NC(=O)C2(c3ccccc3C(C)C)CN(C(=O)C[C@H](C)C(=O)O)C2)c(OC(F)F)n1 [Ex 12-79, (S)-4-(3-((2-(difluoromethoxy)-6-methylpyridin-3-yl)carbamoyl)-3-(2-isopropylphenyl)azetidin-1-yl)-2-methyl-4-oxobutanoic acid] |
| 6.09 | CCOC(=O)CC(C)(C)CN1CC(C(=O)Nc2ccc(C)nc2OC(F)F)(c2ccccc2C(C)C)C1 [Ex 11-32, ethyl 4-(3-((2-(difluoromethoxy)-6-methylpyridin-3-yl)carbamoyl)-3-(2-isopropylphenyl)azetidin-1-yl)-3,3-dimethylbutanoate] |
| 7.85 | Cc1ccc(NC(=O)C2(c3ccccc3C(C)C)CN(C(=O)[C@H](C)CC(=O)O)C2)c(OC(F)F)n1 [Ex 12-90, (R)-4-(3-((2-(difluoromethoxy)-6-methylpyridin-3-yl)carbamoyl)-3-(2-isopropylphenyl)azetidin-1-yl)-3-methyl-4-oxobutanoic acid] |

| pIC50 | Molecule |
| --- | --- |
| 7.82 | Cc1ccc(NC(=O)C2(c3ccccc3C(C)C)CN(S(=O)(=O)NCCF)C2)c(OC(F)F)n1 [Ex 15-4, N-(2-(difluoromethoxy)-6-methylpyridin-3-yl)-1-(N-(2-fluoroethyl)sulfamoyl)-3-(2-isopropylphenyl)azetidine-3-carboxamide] |
| 7.32 | CNCCN1CC(C(=O)Nc2ccc(C)nc2OC(F)F)(c2ccccc2C(C)C)C1 [Ex 11-62, N-(2-(difluoromethoxy)-6-methylpyridin-3-yl)-3-(2-isopropylphenyl)-1-(2-(methylamino)ethyl)azetidine-3-carboxamide] |
| 6.81 | Cc1ccc(NC(=O)C2(c3ccccc3C(C)C)CN(C(=O)CNCCC(=O)O)C2)c(OC(F)F)n1 [Ex 44, 3-((2-(3-((2-(difluoromethoxy)-6-methylpyridin-3-yl)carbamoyl)-3-(2-isopropylphenyl)azetidin-1-yl)-2-oxoethyl)amino)propanoic acid] |
| 5.12 | Cc1ccc(NC(=O)C2(c3nccnc3C(C)C)CNC2)c(OC(F)F)n1 [Ex 68, N-(2-(difluoromethoxy)-6-methylpyridin-3-yl)-3-(3-isopropylpyrazin-2-yl)azetidine-3-carboxamide] |
| 7.96 | Cc1ccc(NC(=O)C2(c3ccccc3C(C)C)CN(C#N)C2)c(OC(F)F)n1 [Ex 11-6, 1-cyano-N-(2-(difluoromethoxy)-6-methylpyridin-3-yl)-3-(2-isopropylphenyl)azetidine-3-carboxamide] |
| 8.22 | Cc1ccc(NC(=O)C2(c3ccccc3C(C)C)CN(c3ccc(C(=O)O)cn3)C2)c(OC(F)F)n1 [Ex 18-2, 6-(3-((2-(difluoromethoxy)-6-methylpyridin-3-yl)carbamoyl)-3-(2-isopropylphenyl)azetidin-1-yl)nicotinic acid] |
| 7.92 | COC(=O)CCCN1CC(C(=O)Nc2ccc(C)nc2OC(F)F)(c2ccccc2C(C)C)C1 [Ex 11-28, methyl 4-(3-((2-(difluoromethoxy)-6-methylpyridin-3-yl)carbamoyl)-3-(2-isopropylphenyl)azetidin-1-yl)butanoate] |
| 6.85 | COC(=O)C(C)(C)CC(=O)N1CC(C(=O)Nc2ccc(OC)nc2OC)(c2ccccc2C(C)C)C1 [Ex 12-85, methyl 4-(3-((2,6-dimethoxypyridin-3-yl)carbamoyl)-3-(2-isopropylphenyl)azetidin-1-yl)-2,2-dimethyl-4-oxobutanoate] |
| 8.15 | Cc1ccc(NC(=O)C2(c3ccccc3C(C)C)CCN(C(=O)CC3(O)COC3)CC2)c(OC(F)F)n1 [Ex 12-14, N-(2-(difluoromethoxy)-6-methylpyridin-3-yl)-1-(2-(3-hydroxyoxetan-3-yl)acetyl)-4-(2-isopropylphenyl)piperidine-4-carboxamide] |
| 8.52 | CC(C)c1ccccc1C1(C(=O)Nc2ncc(Br)cc2OC(F)F)CN(C(=O)NC2CC2)C1 [Ex 82-2, N3-(5-bromo-3-(difluoromethoxy)pyridin-2-yl)-N1-cyclopropyl-3-(2-isopropylphenyl)azetidine-1,3-dicarboxamide] |
| 6.44 | COC(=O)C(C)(C)CS(=O)(=O)N1CC(C(=O)Nc2ccc(C)nc2OC(F)F)(c2ccccc2C(C)C)C1 [Ex 13-11, methyl 3-((3-((2-(difluoromethoxy)-6-methylpyridin-3-yl)carbamoyl)-3-(2-isopropylphenyl)azetidin-1-yl)sulfonyl)-2,2-dimethylpropanoate] |
| 7.33 | COC(=O)c1cc(CN2CC(C(=O)Nc3ccc(C)nc3OC(F)F)(c3ccccc3C(C)C)C2)ccn1 [Ex 11-50, methyl 4-((3-((2-(difluoromethoxy)-6-methylpyridin-3-yl)carbamoyl)-3-(2-isopropylphenyl)azetidin-1-yl)methyl)picolinate] |
| 9.00 | Cc1ccc(NC(=O)C2(c3ccccc3C(C)C)CN(c3cc(F)ccn3)C2)c(OC(F)F)n1 [Ex 18-18, N-(2-(difluoromethoxy)-6-methylpyridin-3-yl)-1-(4-fluoropyridin-2-yl)-3-(2-isopropylphenyl)azetidine-3-carboxamide] |
| 7.25 | COc1ccc(C(C)C)c(C2(C(=O)Nc3ccc(C)nc3OC(F)F)CN(C(=O)CC(C)(C)C(=O)O)C2)c1 [Ex 39-6, 4-(3-((2-(difluoromethoxy)-6-methylpyridin-3-yl)carbamoyl)-3-(2-isopropyl-5-methoxyphenyl)azetidin-1-yl)-2,2-dimethyl-4-oxobutanoic acid] |
| 7.64 | Cc1ccc(NC(=O)C2(c3ccccc3C3CCOCC3)CNC2)c(OC(F)F)n1 [Ex 28, N-(2-(difluoromethoxy)-6-methylpyridin-3-yl)-3-(2-(tetrahydro-2H-pyran-4-yl)phenyl)azetidine-3-carboxamide] |

| Molecule | pIC50 |
| --- | --- |
| Cc1ccc(NC(=O)C2(c3ccccc3C(C)C)CCN(CCO)CC2)c(OC(F)F)n1 [Ex 11-3, N-(2-(difluoromethoxy)-6-methylpyridin-3-yl)-1-(2-hydroxyethyl)-4-(2-isopropylphenyl)piperidine-4-carboxamide] | 7.49 |
